Columns and labels:
Format in all cases: cell-based
GSPT1 = molecular target: T1, GSPT1 (Homo sapiens, UniProt P15170); experiment: Western blot assay, GSPT1 neosubstrate degradation; settings: MHHCALL4; 100 nM, 24 h; MHH-CALL-4 cells; vehicle control = 100%
T1 construct: endogenous in cells; host or cells: MHH-CALL-4
Experimental: (§1) Western blot assay: MHH-CALL-4 Cells were washed twice with ice-cold PBS and lysed in RIPA lysis buffer (Sigma) freshly supplemented with Halt™ Protease Inhibitor Cocktail (ThermoFisher) for 15 minutes on ice. The cell pellet was removed by centrifugation at 13,000 g at 4° C. for 15 minutes. Protein concentration was measured by BCA assay (Thermo Fisher Scientific). Proteins were denatured in NuPAGE LDS 4× sample buffer supplemented with reducing agents (Invitrogen). Typically, 10-20 μg of total protein was loaded per lane on a 4%-12% NUPAGE Bis-Tris gradient gel (Invitrogen) and analyzed by standard immunoblotting and imaged using Li—COR Odyssey CLx (LI-COR Biotechnology, Lincoln, NE). To access the protein degradation, the signal of target protein was normalized by the signal of ACBT and the signal of vehicle control was set as 100%. Primary antibodies used were: JAK1 (Cell Signaling #3332S), JAK2 (#3230S), JAK3 (#8827S), TYK2 (#9312S), GSPT1 (#14980S), CRBN (#71810S), IKZF1 (Santa Cruz Biotechnology, SC-398265) and ACBT (Santa Cruz Biotechnology, SC-47778).

MHH-CALL-4 cells = experiment: Cytotoxicity assay (resazurin, 72 hours); parameters: AUC: unit not given beside the values; settings: for EC50: MHHCALL4, resazurin; for AUC: area under the dose-response curve
Experimental: Cytotoxicity assay: MHH-CALL-4 cells were maintained in RPMI1640 medium (Invitrogen) supplemented with 10% FBS (Hyclone), Penicillin/Streptomycin (100 units/mL) and Glutamine (100 μM). 2×10^5 cells were seeded in 100 μl medium/well in 96 well assay plates (Corning 3603). Assays were performed in triplicate; compounds to be screened were added to assay plates from DMSO stock solutions by pin transfer using 50SS pins (V&P Scientific). The assay plates incubated at 37° C. in 5% CO2 for 72 hours. Cells were then incubated for four hours with resazurin (Sigma) solution and read on a Synergy HT plate reader (Biotek, Winooski, VT). High-throughput assay data was analyzed using our in-house Robust Interpretation of Screening Experiments (RISE) application written in Pipeline Pilot (Biovia, v. 17.2.0) and the R program (R Core Team, 2013). All the AUC (area under the dose-response curve) per compound calculated from its dose response curve by RISE protocol. Selected data were plotted and analyzed by GraphPad Prism software v7 using non-linear regression curve fitting.

JAK3 = molecular target: T2, JAK3 (Homo sapiens, UniProt P52333); experiment: Western blot assay, JAK3 protein degradation; settings: MHHCALL4; 100 nM, 24 h; MHH-CALL-4 cells; vehicle control = 100%; read-out: Target Protein Degradation (% remaining at 100 nM, 24 h) JAK3
T2 construct: endogenous in cells; host or cells: MHH-CALL-4
T2 sequence (P52333 1-1124): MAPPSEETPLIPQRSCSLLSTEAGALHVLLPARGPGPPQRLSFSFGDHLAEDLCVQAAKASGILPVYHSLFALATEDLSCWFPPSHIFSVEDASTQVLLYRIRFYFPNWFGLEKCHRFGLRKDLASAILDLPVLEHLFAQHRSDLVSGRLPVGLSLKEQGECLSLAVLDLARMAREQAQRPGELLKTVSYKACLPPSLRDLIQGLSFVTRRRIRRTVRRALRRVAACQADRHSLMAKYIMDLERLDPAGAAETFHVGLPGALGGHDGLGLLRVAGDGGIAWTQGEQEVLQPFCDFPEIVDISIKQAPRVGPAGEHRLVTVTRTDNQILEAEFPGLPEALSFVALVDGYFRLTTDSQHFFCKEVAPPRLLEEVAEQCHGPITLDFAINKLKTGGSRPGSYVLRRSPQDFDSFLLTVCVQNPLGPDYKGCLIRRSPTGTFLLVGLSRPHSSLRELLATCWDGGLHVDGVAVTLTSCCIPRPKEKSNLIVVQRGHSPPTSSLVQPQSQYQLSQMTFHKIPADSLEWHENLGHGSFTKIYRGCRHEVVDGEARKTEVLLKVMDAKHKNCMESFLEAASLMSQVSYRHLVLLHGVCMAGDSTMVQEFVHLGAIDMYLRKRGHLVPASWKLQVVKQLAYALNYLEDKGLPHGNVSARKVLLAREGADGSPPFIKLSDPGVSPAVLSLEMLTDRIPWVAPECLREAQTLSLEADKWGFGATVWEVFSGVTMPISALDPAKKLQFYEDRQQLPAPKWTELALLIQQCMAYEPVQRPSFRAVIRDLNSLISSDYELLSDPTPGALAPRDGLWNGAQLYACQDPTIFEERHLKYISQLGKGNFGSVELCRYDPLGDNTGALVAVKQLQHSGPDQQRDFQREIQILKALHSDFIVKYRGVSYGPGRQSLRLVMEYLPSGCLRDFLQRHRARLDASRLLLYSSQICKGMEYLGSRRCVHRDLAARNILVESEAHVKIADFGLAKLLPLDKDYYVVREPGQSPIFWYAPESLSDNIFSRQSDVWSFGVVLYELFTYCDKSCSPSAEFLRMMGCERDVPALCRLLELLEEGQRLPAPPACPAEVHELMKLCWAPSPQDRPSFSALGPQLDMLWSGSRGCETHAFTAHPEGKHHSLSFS
Experimental: as §1

JAK1 = molecular target: T3, JAK1 (Homo sapiens, UniProt P23458); experiment: Western blot assay, JAK1 protein degradation; settings: MHH-CALL-4 cells, vehicle control = 100%
T3 construct: endogenous in cells; host or cells: MHH-CALL-4
T3 sequence (P23458 whole entry): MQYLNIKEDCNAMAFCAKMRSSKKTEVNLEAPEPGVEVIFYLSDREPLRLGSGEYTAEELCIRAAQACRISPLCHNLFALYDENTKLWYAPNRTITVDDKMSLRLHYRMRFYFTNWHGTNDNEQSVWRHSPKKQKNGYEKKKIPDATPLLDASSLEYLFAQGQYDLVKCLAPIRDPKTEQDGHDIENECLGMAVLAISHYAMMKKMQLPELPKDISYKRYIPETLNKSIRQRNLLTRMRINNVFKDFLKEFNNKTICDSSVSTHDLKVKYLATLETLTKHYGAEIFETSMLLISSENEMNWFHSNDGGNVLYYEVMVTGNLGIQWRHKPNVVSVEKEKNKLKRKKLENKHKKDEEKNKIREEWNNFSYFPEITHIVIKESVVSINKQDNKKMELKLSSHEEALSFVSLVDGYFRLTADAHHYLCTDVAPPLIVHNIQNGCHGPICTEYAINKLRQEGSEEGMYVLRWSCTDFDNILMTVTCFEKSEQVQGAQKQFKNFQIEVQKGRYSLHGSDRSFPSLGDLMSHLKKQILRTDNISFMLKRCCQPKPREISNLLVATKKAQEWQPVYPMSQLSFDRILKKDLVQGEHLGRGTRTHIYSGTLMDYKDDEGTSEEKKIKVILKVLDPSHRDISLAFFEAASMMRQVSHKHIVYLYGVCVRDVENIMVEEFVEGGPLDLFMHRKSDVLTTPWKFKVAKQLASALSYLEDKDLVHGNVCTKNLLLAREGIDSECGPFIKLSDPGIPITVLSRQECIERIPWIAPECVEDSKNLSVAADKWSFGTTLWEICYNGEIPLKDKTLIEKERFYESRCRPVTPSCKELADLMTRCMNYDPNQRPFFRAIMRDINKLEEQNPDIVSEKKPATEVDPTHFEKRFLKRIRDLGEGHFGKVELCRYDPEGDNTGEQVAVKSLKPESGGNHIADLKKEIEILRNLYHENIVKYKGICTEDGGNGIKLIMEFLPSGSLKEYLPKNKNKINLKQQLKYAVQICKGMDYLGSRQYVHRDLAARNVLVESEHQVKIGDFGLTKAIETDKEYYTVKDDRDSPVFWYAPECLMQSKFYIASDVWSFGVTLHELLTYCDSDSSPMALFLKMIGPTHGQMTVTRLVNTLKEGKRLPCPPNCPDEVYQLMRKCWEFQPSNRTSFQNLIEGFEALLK
Experimental: as §1

JAK2 = experiment: Western blot assay, JAK2 protein degradation; settings: MHH-CALL-4 cells, vehicle control = 100%
Experimental: as §1

T1 sequence (P15170 whole entry): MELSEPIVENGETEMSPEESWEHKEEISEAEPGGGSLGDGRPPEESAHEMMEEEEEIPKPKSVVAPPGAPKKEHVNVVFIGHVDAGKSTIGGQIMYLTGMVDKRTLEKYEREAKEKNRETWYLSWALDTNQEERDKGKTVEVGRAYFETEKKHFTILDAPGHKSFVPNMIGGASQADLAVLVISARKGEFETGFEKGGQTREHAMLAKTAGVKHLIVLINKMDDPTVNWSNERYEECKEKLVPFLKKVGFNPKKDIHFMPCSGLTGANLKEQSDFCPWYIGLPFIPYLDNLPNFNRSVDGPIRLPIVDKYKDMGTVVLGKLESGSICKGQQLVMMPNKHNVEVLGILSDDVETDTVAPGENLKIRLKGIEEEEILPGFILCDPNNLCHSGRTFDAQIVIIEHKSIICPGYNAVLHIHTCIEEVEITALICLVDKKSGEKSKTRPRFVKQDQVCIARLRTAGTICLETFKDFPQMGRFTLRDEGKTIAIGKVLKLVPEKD

SMILES	remaining activity at 0.1 µM (GSPT1)	remaining activity at 0.1 µM (JAK3)	Target Protein Degradation (% remaining at 100 nM, 24 h) JAK1 (JAK1)	EC50 (MHH-CALL-4 cells)	AUC (MHH-CALL-4 cells)	Target Protein Degradation (% remaining at 100 nM, 24 h) JAK2 (JAK2)
CCS(=O)(=O)N1CC(CC#N)(n2cc(-c3nc(Nc4ccc(C(=O)NCCCCCCNc5ccc(C6CCC(=O)NC6=O)cc5)cc4)nc4[nH]ccc34)cn2)C1 (stereo not shown) [Compound 1]	84%	37%	128 % remaining	0.8 nM	231	34 % remaining
CCS(=O)(=O)N1CC(CC#N)(n2cc(-c3nc(Nc4ccc(C(=O)NCCCCN5CCN(c6ccc(C7CCC(=O)NC7=O)cc6)CC5)cc4)nc4[nH]ccc34)cn2)C1 (stereo not shown) [Compound 19]	129%	112%	87 % remaining	1450 nM	225	34 % remaining
CCS(=O)(=O)N1CC(CC#N)(n2cc(-c3nc(Nc4ccc(C(=O)NCCCCNc5cccc(C6CCC(=O)NC6=O)c5)cc4)nc4[nH]ccc34)cn2)C1 (stereo not shown) [Compound 4]	124%	44%	17 % remaining	2.1 nM	120	30 % remaining
CCS(=O)(=O)C1CC(CC#N)(n2cc(-c3nc(Nc4ccc(C(=O)N5CCC(c6ccc7c(c6)C(=O)N(C6CCC(=O)NC6=O)C7=O)CC5)cc4)nc4[nH]ccc34)cn2)C1 (stereo not shown) [Compound 27]	118%	92%	107 % remaining	289 nM	143	68 % remaining
CCS(=O)(=O)N1CC(CC#N)(n2cc(-c3nc(Nc4ccc(C(=O)NCC5CCN(c6ccc7c(c6)C(=O)N(C6CCC(=O)NC6=O)C7=O)CC5)cc4)nc4[nH]ccc34)cn2)C1 (stereo not shown) [Compound 31]	61%	54%	58 % remaining	2.1 nM	260	18 % remaining
CCS(=O)(=O)N1CC(CC#N)(n2cc(-c3nc(Nc4ccc(C(=O)NCCCN5CCC(c6ccc7c(c6)CN(C6CCC(=O)NC6=O)C7=O)CC5)cc4)nc4[nH]ccc34)cn2)C1 (stereo not shown) [Compound 28]	127%	97%	112 % remaining	16.8 nM	223.00	83 % remaining
CCS(=O)(=O)N1CC(CC#N)(n2cc(-c3nc(Nc4ccc(C(=O)NCCCCCNc5cccc(C6CCC(=O)NC6=O)c5)cc4)nc4[nH]ccc34)cn2)C1 (stereo not shown) [Compound 6]	–	54%	44 % remaining	5.9 nM	136	37 % remaining
CCS(=O)(=O)N1CC(CC#N)(n2cc(-c3nc(Nc4ccc(C(=O)NCCN5CCC(c6ccc7c(c6)CN(C6CCC(=O)NC6=O)C7=O)CC5)cc4)nc4[nH]ccc34)cn2)C1 (stereo not shown) [Compound 35, 4-((4-(1-(3-(cyanomethyl)-1-(ethylsulfonyl)azetidin-3-yl)-1H-pyrazol-4-yl)-7H-pyrrolo[2,3-d]pyrimidin-2-yl)amino)-N-(2-(4-(2-(2,6-dioxopiperidin-3-yl)-1-oxoisoindolin-5-yl)piperidin-1-yl)ethyl)benzamide]	116%	51%	–	22 nM	223	33 % remaining

Now from value to compound, other results behind:

remaining activity at 0.1 µM (GSPT1)	remaining activity at 0.1 µM (JAK3)	Target Protein Degradation (% remaining at 100 nM, 24 h) JAK1 (JAK1)	SMILES	EC50 (MHH-CALL-4 cells)	AUC (MHH-CALL-4 cells)	Target Protein Degradation (% remaining at 100 nM, 24 h) JAK2 (JAK2)
74%	11%	59 % remaining	CCS(=O)(=O)N1CC(CC#N)(n2cc(-c3nc(Nc4ccc(C(=O)N5CCC(CN6CCN(c7ccc(C8CCC(=O)NC8=O)cc7)CC6)CC5)cc4)nc4[nH]ccc34)cn2)C1 (stereo not shown) [Compound 49, 2-(3-(4-(2-((4-(4-((4-(4-(2,6-dioxopiperidin-3-yl)phenyl)piperazin-1-yl)methyl)piperidine-1-carbonyl)phenyl)amino)-7H-pyrrolo[2,3-d]pyrimidin-4-yl)-1H-pyrazol-1-yl)-1-(ethylsulfonyl)azetidin-3-yl)acetonitrile]	4 nM	199	13 % remaining
37%	79%	123 % remaining	CCCn1cc(-c2nc(Nc3ccc(C(=O)NCCCCOc4ccc(C5CCC(=O)NC5=O)cc4)cc3)nc3[nH]ccc23)cn1 (stereo not shown) [Compound 43, N-(4-(4-(2,6-dioxopiperidin-3-yl)phenoxy)butyl)-4-((4-(1-propyl-1H-pyrazol-4-yl)-7H-pyrrolo[2,3-d]pyrimidin-2-yl)amino)benzamide]	–	–	76 % remaining
101%	29%	107 % remaining	CCS(=O)(=O)N1CC(CC#N)(n2cc(-c3nc(Nc4ccc(C(=O)NCC5CCN(c6ccc(C7CCC(=O)NC7=O)cc6)CC5)cc4)nc4[nH]ccc34)cn2)C1 (stereo not shown) [Compound 45, 4-((4-(1-(3-(cyanomethyl)-1-(ethylsulfonyl)azetidin-3-yl)-1H-pyrazol-4-yl)-7H-pyrrolo[2,3-d]pyrimidin-2-yl)amino)-N-((1-(4-(2,6-dioxopiperidin-3-yl)phenyl)piperidin-4-yl)methyl)benzamide]	–	–	21 % remaining
81%	74%	104 % remaining	CCCn1cc(-c2nc(Nc3ccc(C(=O)NCCCN4CCN(c5ccc(C6CCC(=O)NC6=O)cc5)CC4)cc3)nc3[nH]ccc23)cn1 (stereo not shown) [Compound 44, N-(3-(4-(4-(2,6-dioxopiperidin-3-yl)phenyl)piperazin-1-yl)propyl)-4-((4-(1-propyl-JH-pyrazol-4-yl)-7H-pyrrolo[2,3-d]pyrimidin-2-yl)amino)benzamide]	–	–	64 % remaining

Reference: patent US20240124465A1, “MOLECULES AND METHODS RELATED TO TREATMENT OF DISORDERS ASSOCIATED WITH JAK-2 SIGNALING DYSFUNCTION” (ST. JUDE CHILDREN'S RESEARCH HOSPITAL, priority 2020, published 2024)
